Data as given in article PMC8370666 (Journal of the Iranian Chemical Society, 2021).

How the values were obtained:
Assay in all cases: biochemical
[1] = biological target: SARS-CoV nsp14 (Severe acute respiratory syndrome coronavirus, UniProt P0C6X7); conditions: for IC50: SARS-Cov nap14 IC50; for inhibition at 50 µM: read-out: % of inhibition at 50 μM, SARs-Cov nsp 14
[2] = biological target: vaccinia virus capping enzyme (D1-D12) (Vaccinia virus, UniProt P04298); conditions: read-out: % of inhibition at 50 μM, Vaccinia virus D1-D12
[3] = biological target: human RNA N7-MTase (hRNMT) (Homo sapiens, UniProt O43148); type: biochemical; conditions: for inhibition at 50 µM: read-out: % of inhibition at 50 μM, hRNMT
Chain of human RNA N7-MTase (hRNMT) (O43148 whole entry): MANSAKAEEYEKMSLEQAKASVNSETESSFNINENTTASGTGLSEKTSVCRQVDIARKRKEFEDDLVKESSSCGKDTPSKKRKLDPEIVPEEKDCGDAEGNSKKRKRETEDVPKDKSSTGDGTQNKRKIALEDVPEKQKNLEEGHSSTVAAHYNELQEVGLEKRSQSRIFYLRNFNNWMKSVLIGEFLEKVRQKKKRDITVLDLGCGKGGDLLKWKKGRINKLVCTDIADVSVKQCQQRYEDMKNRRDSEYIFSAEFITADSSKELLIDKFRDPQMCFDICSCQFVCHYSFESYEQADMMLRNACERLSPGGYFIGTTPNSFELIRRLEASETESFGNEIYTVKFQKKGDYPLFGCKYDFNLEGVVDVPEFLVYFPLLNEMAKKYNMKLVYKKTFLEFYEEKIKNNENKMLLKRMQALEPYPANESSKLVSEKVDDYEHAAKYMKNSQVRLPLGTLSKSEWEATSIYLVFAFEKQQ

SMILES	IC50 [1] [µM]	inhibition at 50 µM [1] [%]	inhibition at 50 µM [2] [%]	% of inhibition at 50 μM, hRNMT [3]	IC50 [3] [µM]	inhibition at 50 µM [3] [%]
N#CC1=C(N)OC2=C(CC(=O)CC2)C1c1ccccc1 (stereo not shown) [Compound 4a, 2-Amino-6-oxo-4-phenyl-5,6,7,8-tetrahydro-4H-chromene-3-carbonitrile]	0.63 ± 0.32	93.4 ± 3.68	89.3 ± 7.89	high inhibitions	< 0.05	92.3 ± 5.41
N#CC1=C(N)OC2=C(CC(=O)CC2)C1c1ccccc1Cl (stereo not shown) [Compound 4b, 2-Amino-4-(2-chlorophenyl)-6-oxo-5,6,7,8-tetrahydro-4H-chromene-3-carbonitrile]	0.62 ± 0.32	87.5 ± 8.21	98.3 ± 5.42	high inhibitions	0.41 ± 0.26	94.6 ± 7.68
COc1ccc(C2C(C#N)=C(N)OC3=C2CC(=O)CC3)cc1 (stereo not shown) [Compound 4c, 2-Amino-4-(4-methoxyphenyl)-6-oxo-5,6,7,8-tetrahydro-4H-chromene-3-carbonitrile]	16.4 ± 2.7	34.6 ± 4.62	49.4 ± 6.92		32.6 ± 1.7	51.7 ± 4.62
N#CC1=C(N)OC2=C(c3sc(N)c(C#N)c3CC2)C1c1ccccc1 (stereo not shown) [Compound 6a, 2,7-Diamino-9-phenyl-5,9-dihydro-4H-thieno[2,3-f]chromene-3,8-dicarbonitrile]	26.4 ± 3.57	68.2 ± 4.53	79.3 ± 5.37	high inhibitions	36.5 ± 6.27	80.3 ± 3.74
COc1ccc(C2C(C#N)=C(N)OC3=C2c2sc(N)c(C#N)c2CC3)cc1 (stereo not shown) [Compound 6c, 2,7-Diamino-9-(4-methoxyphenyl)-5,9-dihydro-4H-thieno[2,3-f]chromene-3,8-dicarbonitrile]	0.45 ± 0.19	88.2 ± 4.26	92.2 ± 5.22	high inhibitions	< 0.05	92.2 ± 5.22
CCOC(=O)c1c(N)sc2c1CCC1=C2C(c2ccccc2)C(C#N)=C(N)O1 (stereo not shown) [Compound 6d, Ethyl 2,7-diamino-8-cyano-9-phenyl-5,9-dihydro-4H-thieno[2,3-f]chromene-3-carboxylate]	26.7 ± 5.73	42.6 ± 4.65	36.3 ± 5.22		10.5 ± 2.69	40.3 ± 6.27
CCOC(=O)c1c(N)sc2c1CCC1=C2C(c2ccccc2Cl)C(C#N)=C(N)O1 (stereo not shown) [Compound 6e, Ethyl 2,7-diamino-9-(2-chlorophenyl)-8-cyano-5,9-dihydro-4H-thieno[2,3-f]chromene-3-carboxylate]	0.39 ± 0.25	89.2 ± 8.27	92.5 ± 6.9	high inhibitions	0.29 ± 0.08	80.2 ± 6.28
CCOC(=O)c1c(N)sc2c1CCC1=C2C(c2ccc(OC)cc2)C(C#N)=C(N)O1 (stereo not shown) [Compound 6f, Ethyl 2,7-diamino-8-cyano-9-(4-methoxyphenyl)-5,9-dihydro-4H-thieno[2,3-f]chromene-3-carboxylate]	36.4 ± 4.51	58.3 ± 3.65	44.8 ± 5.08		1.26 ± 0.58	62.5 ± 5.84
N#CC1=C(N)OC2=C(C=C(c3c(N)n[nH]c3N)CC2)C1c1ccccc1Cl (stereo not shown) [Compound 9a, 2-Amino-4-(2-chlorophenyl)-6-(3,5-diamino-1H-pyrazol-4-yl)-7,8-dihydro-4H-chromene-3-carbonitrile]	0.42 ± 0.19	96.3 ± 2.4	95.5 ± 3.23	high inhibitions	< 0.05	93.6 ± 3.71
N#CC1=C(N)OC2=C(C=C(c3c(N)nn(-c4ccccc4)c3N)CC2)C1c1ccccc1Cl (stereo not shown) [Compound 9b, 2-Amino-4-(2-chlorophenyl)-6-(3,5-diamino-1-phenyl-1H-pyrazol-4-yl)-7,8-dihydro-4H-chromene-3-carbonitrile]	0.36 ± 0.2	93.3 ± 4.17	96.1 ± 2.48	high inhibitions	1.91 ± 1.32	90.3 ± 5.2
CC1=CSC(=C2C(=O)CCC3=C2C(c2ccccc2Cl)C(C#N)=C(N)O3)N1c1ccccc1 (stereo not shown) [Compound 15, 2-Amino-4-(2-chlorophenyl)-5-(4-methyl-3-phenylthiazol-2(3H)-ylidene)-6-oxo-5,6,7,8-tetrahydro-4H-chromene-3-carbonitrile]	22.6 ± 3.58	89.2 ± 5.83	90.4 ± 5.68	high inhibitions	4.91 ± 2.34	87.3 ± 6.42
CCOC(=O)CSC(Nc1ccccc1)=C1C(=O)CCC2=C1C(c1ccccc1Cl)C(C#N)=C(N)O2 (stereo not shown) [Compound 16, Ethyl 2-(((2-amino-4-(2-chlorophenyl)-3-cyano-6-oxo-7,8-dihydro-4H-chromen-5(6H)-ylidene)(phenylamino)methyl)thio)acetate]	0.53 ± 0.18	89.2 ± 6.58	84.3 ± 6.29	high inhibitions	1.29 ± 0.98	90.3 ± 4.66
O=C1CCc2c(sc(=S)n2-c2ccccc2)C1 [Compound 18, 3-Phenyl-2-thioxo-2,3,4,5-tetrahydrobenzo[d]thiazol-6(7H)-one]	53.3 ± 5.62	56.4 ± 5.73	63.7 ± 7.08		26.5 ± 6.28	65.5 ± 4.8
CCOC1C(C#N)=C(N)OC2=C1c1sc(=S)n(-c3ccccc3)c1CC2 (stereo not shown) [Compound 20a, 7-Amino-9-ethoxy-3-phenyl-2-thioxo-3,4,5,9-tetrahydro-2H-chromeno[6,5-d]thiazole-8-carbonitrile]	42.4 ± 5.63	49.2 ± 6.73	53.5 ± 8.25		58.3 ± 4.95	70.4 ± 5.9
CCOC1C(C#N)=C(O)OC2=C1c1sc(=S)n(-c3ccccc3)c1CC2 (stereo not shown) [Compound 20b, 9-Ethoxy-7-hydroxy-3-phenyl-2-thioxo-3,4,5,9-tetrahydro–2H-chromeno[6,5-d]thiazole-8-carbonitrile]	32.6 ± 3.8	36.1 ± 6.83	41.4 ± 4.93		18.8 ± 5.36	39.5 ± 6.83
N#Cc1c(N)sc2c1CCc1c-2sc(=S)n1-c1ccccc1 [Compound 21a, 7-Amino-3-phenyl-2-thioxo-2,3,4,5-tetrahydrothieno[2',3':3,4]benzo[1,2-d]thiazole-6-carbonitrile]	18.5 ± 2.68	49.2 ± 6.73	57.8 ± 5.82		56.3 ± 4.62	60.3 ± 5.37
CCOC(=O)c1c(N)sc2c1CCc1c-2sc(=S)n1-c1ccccc1 [Compound 21b, Ethyl 7-amino-3-phenyl-2-thioxo-2,3,4,5-tetrahydrothieno[2',3':3,4]benzo[1,2-d]thiazole-6-carboxylate]	1.08 ± 0.58	87.2 ± 5.36	90.4 ± 6.53	high inhibitions	0.94 ± 0.36	88.2 ± 5.38
N#CC1=C(N)OC2=C(c3sc(=S)n(-c4ccccc4)c3CC2)C1c1ccccc1 (stereo not shown) [Compound 23a, 7-Amino-3,9-diphenyl-2-thioxo-3,4,5,9-tetrahydro-2H-chromeno[6,5-d]thiazole-8-carbonitrile]	32.4 ± 4.58	56.6 ± 6.72	45.8 ± 6.38		24.7 ± 5.47	42.7 ± 5.88
N#CC1=C(N)OC2=C(c3sc(=S)n(-c4ccccc4)c3CC2)C1c1ccc(Cl)cc1 (stereo not shown) [Compound 23b, 7-Amino-9-(4-chlorophenyl)-3-phenyl-2-thioxo-3,4,5,9-tetrahydro-2H-chromeno[6,5-d]thiazole-8-carbonitrile]	0.35 ± 0.15	94.5 ± 6.83	96.3 ± 8.92	high inhibitions	< 0.05	96.4 ± 7.24
CCOC(=O)C1=C(N)OC2=C(c3sc(=S)n(-c4ccccc4)c3CC2)C1c1ccccc1 (stereo not shown) [Compound 23c, Ethyl 7-amino-3,9-diphenyl-2-thioxo-3,4,5,9-tetrahydro-2H-chromeno[6,5-d]thiazole-8-carboxylate]	28.4 ± 3.26	64.3 ± 5.53	70.4 ± 5.63		70.3 ± 3.8	59.3 ± 4.68
CCOC(=O)C1=C(N)OC2=C(c3sc(=S)n(-c4ccccc4)c3CC2)C1c1ccc(Cl)cc1 (stereo not shown) [Compound 23d, Ethyl 7-amino-9-(4-chlorophenyl)-3-phenyl-2-thioxo-3,4,5,9-tetrahydro-2H-chromeno[6,5-d]thiazole-8-carboxylate]	0.49 ± 0.13	57.7 ± 4.26	72.3 ± 5.58		< 0.05	68.6 ± 6.42
Nc1ncnc2c1ncn2[C@@H]1O[C@H](C[C@@H](N)CC[C@H](N)C(=O)O)[C@@H](O)[C@H]1O [Sinefungin, reference compound]		98.36 ± 0.23			< 0.05	
